Laboratory results reported in patent US20250256005A1, “FLOWABLE PASTE WITH ELLAGIC ACID-NICKEL COMPLEX AND USES THEREOF FOR ACTIVATING COAGULATION” (Ethicon, Inc., priority 2024, published 2025).

Test system: citrated whole blood (intrinsic pathway of coagulation)
Assay: Whole Blood (WB) gelation test
Format: biochemical
Conditions: ellagic acid without Nickel or any other metal
From the text: The aim was to assess how quickly the activators clot fresh whole blood.
These clotting time assays evaluate the ability of a material to active the intrinsic pathway to form a fibrin clot in whole blood after recalcification of citrated blood. Fresh citrated blood is used to preserve clotting factors.
WB Gelation Test: The WB gelation test uses a larger volume of blood compared to a small volume ACT tube to accommodate biomaterials, e.g., gelatins, collagen, thus allowing the WB gelation test to assess interactions between activators and biomaterials. […] To address this limitation, the WB Gelation Test was developed with a heated enclosure and larger tubes to accommodate larger volumes of blood and greater amounts of activators. Setup includes a plexiglass enclosure with a heating unit to perform the testing at 37° C. A temperature sensor in the enclosure maintained the temperature at 37° C. ±1° C. The enclosure contains an orbital rotator to gently mix the blood to with the other materials being tested while keeping it warm. The calcium saline and tube rocker are also in the enclosure. The enclosure has a front hinge to allow access from the front of the unit.
In exemplary procedures, citrated whole blood (4 ml) was added to a 15 ml conical tube with activator/biomaterial and mixed, then calcium saline solution (2 ml) was added to the tube and the timer is started. […]

Structure (SMILES): O=c1oc2c(O)c(O)cc3c(=O)oc4c(O)c(O)cc1c4c23 [Ellagic acid, ellagic acid]
- time over which no clotting was observed: over 1200 minutes
